In patent publication US10519160B2, “Imaging agents for neural flux” (The General Hospital Corporation, priority 2014, dated 2019):

How the values were obtained:
olfactory epithelium [1] = experiment: PET-MR imaging of radiotracer uptake in non-human primate; format: in vivo, rhesus macaque; details: NHPs
Description: The non-human primates were initially anesthetized with ketamine, followed by maintenance with isoflurane. Animals were placed on the imaging bed and two lines were inserted, an IV line for tracer administration and an arterial line for blood sampling. The animals were scanned for 90 minutes, including time for the MR structural scan. During the scan and tracer injection, the heart and breathing rate of the animal were monitored. Tracer doses were 4-6 mCi (bolus or bolus-plus-infusion) with or without treatment with study compounds (nonradioactive ‘blocking agent’). Prior to tracer injection, the purified tracer was analyzed on an analytical HPLC instrument to determine the purity (must be >95% chemical purity, must be >99% radiochemical purity) and specific activity (must be >1.0 Ci·μmol^−1 of the compound). As standard practice for all NHP work, pyrogenicity, chemical and radiochemical stability, residual solvents, pH, and sterility (post injection) were tested for. For [^11C] radiolabeled compounds, paired studies were performed with radiotracer injections spaced >2.5 h apart. For [^18F] studies, paired studies were performed by assessing baseline and pretreatment effect on two separate days. […]

olfactory epithelium [2] = experiment: PET imaging of radiotracer uptake and specific binding with unlabeled-compound pretreatment in rats; format: in vivo, Sprague-Dawley rat
Text: Prior to imaging, animals were anesthetized with isoflurane and a catheter was placed in a lateral tail vein. An extension line was used to attach the catheter to a syringe with heparinized saline, which was used to prevent clotting of the line and catheter. Animals were then placed in one of two instruments (a GammeMedicaTriumph PET/CT/SPECT scanner or a Siemens R4 PET scanner) and maintained under isoflurane anesthesia for the imaging period. For scans completed in the Triumph scanner, CT images of the animals were taken for PET image attenuation. For animals imaged in the R4, a Germanium (Ge) 68 or a Cobalt (Co) 57 line source was used to create an attenuation correction map. Following imaging, animals were placed in their cages and monitored until they recovered from the anesthesia.
Male Sprague-Dawley rats were imaged with [^11C] radiolabeled N-benzyl-2-fluoro-9-methyl-9H-purin-6-amine following treatment with [^12C] radiolabeled N-benzyl-2-fluoro-9-methyl-9H-purin-6-amine to determine the specific binding of the radiotracer in the olfactory epithelium. Animals were injected with [^12C] radiolabeled N-benzyl-2-fluoro-9-methyl-9H-purin-6-amine (i.v.; 16 mg/kg; 4 mg/mL in 10% DMSO, 10% Tween 20, and 80% saline). After 5 min, animals were injected with [^11C] radiolabeled N-benzyl-2-fluoro-9-methyl-9H-purin-6-amine (0.3-1.5 mCi), in 10% ethanol, 90% saline). [^11C] […] Although [^11C] […] N-benzyl-2-fluoro-9-methyl-9H-purin-6-amine binding in the presence of unlabeled N-benzyl-2-fluoro-9-methyl-9H-purin-6-amine, shown in FIG. 1A-1D.
Animals were injected with an unlabeled N-benzyl-2-fluoro-9-methyl-9H-purin-6-amine (0.1-16 mg/kg in 10% DMSO, 10% Tween 20, and 80% saline). Following this, animals were injected with [^11C] radiolabeled N-benzyl-2-fluoro-9-methyl-9H-purin-6-amine (0.3-1.5 mCi, in 10% ethanol, 90% saline). For the self-blocking dose-response study, the animals were co-administered with N-benzyl-2-fluoro-9-methyl-9H-purin-6-amine and [^11C] radiolabeled N-benzyl-2-fluoro-9-methyl-9H-purin-6-amine in 10% DMSO, 10% Tween 20, 10% ethanol and 70% saline in 1 mL.

[3] = PET, i.v. radiotracer, male Sprague-Dawley rats

With `[11CH3]n1cnc2c(NCc3ccccc3)nc(F)nc21` [[^11C] Radiolabeled N-benzyl-2-fluoro-9-methyl-9H-purin-6-amine] the “specific binding in the nasal cavity” value (olfactory epithelium [1]) was “specific binding is present in the nasal cavity”, the “change of radiotracer binding in the presence of unlabeled N-benzyl-2-fluoro-9-methyl-9H-purin-6-amine” value (olfactory epithelium [1]; nasal cavity) was “decrease” and the non-specific binding (olfactory epithelium [2]; PET, brain) was “low non-specific binding”. The “specific binding in the brain” value (olfactory epithelium [2]; PET, brain) was “limited specific binding in the brain”, the “initial uptake in the brain” value (olfactory epithelium [2]; [3]) was “high initial uptake in the brain” and the “removal from the brain” value (olfactory epithelium [2]; [3]) was “fast removal from the brain”. For the same compound, the “specific binding in the nasal cavity” value (olfactory epithelium [2]; PET, nasal cavity where olfactory receptor neurons are located, rats) was “specific binding in the nasal cavity” and the “change of radiotracer binding in the presence of unlabeled N-benzyl-2-fluoro-9-methyl-9H-purin-6-amine” value (olfactory epithelium [2]; nasal cavity, rats, unlabeled compound i.v. 16 mg/kg 5 min before tracer) was “decrease”.
